According to patent US4686230A, “Picoline derivative useful as gastric acid secretion inhibitors” (Byk Gulden Lomberg Chemische Fabrik GmbH, priority 1984, dated 1987):

How the values were obtained:
[1] = system: stomach lesions induced by pylorus ligature and oral administration of 100 mg/kg of acetylsalicylic acid; experiment: Protective action on the stomach (anti-ulcerogenic action), Shay rats: pylorus ligature + acetylsalicylic acid; format: in vivo; conditions: Rattus norvegicus, 1 h, orally, dose which reduces the mean lesion index by 50% vs control, given one hour before pylorus ligature, read-out: Protective action on the stomach (rats), inhibition of the lesion index, ED50
Protocol: (§1) The investigated compounds according to the invention have been given numbers as follows:
(§2) The effects of the investigated compounds on the formation of stomach lesions induced by pylorus ligature and oral administration of 100 mg/kg of acetylsalicylic acid and the gastric secretion (HCl) for 4 h in rats (so-called Shay rats) are shown in the table which follows.
(§3) + ED25 and ED50 = dose which reduces the lesion index and the HCl
(§4) secretion (Σ4 h) of the rat stomach in the treated group by 25 and
(§5) 50% respectively, as compared with the control group.
The anti-ulcerogenic action was tested by the method of so-called Shay rats:
The ulcers are provoked in rats (female, 180-200 g, 4 animals in each cage on a high grid) kept fasting for 24 hours by pylorus ligature (under diethyl ether anaesthesia) and oral administration of 100 mg/10 ml/kg of acetylsalicylic acid. The substances to be tested are administered orally (10 ml/kg) one hour before the pylorus ligature. The wounds are closed by means of Michel clamps. 4 hours later, the animals are killed under ether intoxication by atlas dislocation and the stomach is resected. The stomach is opened longitudinally and fixed on a cork plate, after first determining the quantity of the secreted gastric juice (volume) and later its HCl content (titration with sodium hydroxide solution); the number and size (=diameter) of existing ulcers was determined by means of a stereomicroscope at 10-fold magnification. The product of the degree of severity (according to the points rating below) and of the number of ulcers is used as the individual lesion index. […]
(§6) The reduction in the mean lesion index of each treated group as compared with that of the control group (=100%) is taken as the measure of the anti-ulcerogenic effect.

gastric secretion (HCl) = experiment: Inhibition of the HCl secretion of the stomach, Shay rats; format: in vivo, rat; conditions: total 4 h; for ED25 / ED50: Rattus norvegicus, po, orally; for ED25: dose which reduces HCl secretion by 25% vs control; for ED50: dose which reduces HCl secretion by 50% vs control; for % inhibition of the HCl secretion: after administration of the antiulcer ED50
Protocol: as §1, §2, §3, §4, §5
++ after administration of the antiulcer ED50
The ulcers are provoked in rats (female, 180-200 g, 4 animals in each cage on a high grid) kept fasting for 24 hours by pylorus ligature (under diethyl ether anaesthesia) and oral administration of 100 mg/10 ml/kg of acetylsalicylic acid. The substances to be tested are administered orally (10 ml/kg) one hour before the pylorus ligature. The wounds are closed by means of Michel clamps. 4 hours later, the animals are killed under ether intoxication by atlas dislocation and the stomach is resected. The stomach is opened longitudinally and fixed on a cork plate, after first determining the quantity of the secreted gastric juice (volume) and later its HCl content (titration with sodium hydroxide solution); the number and size (=diameter) of existing ulcers was determined by means of a stereomicroscope at 10-fold magnification. The product of the degree of severity (according to the points rating below) and of the number of ulcers is used as the individual lesion index.
as §6

SMILES	ED50 [1] [mg/kg]	ED25 (gastric secretion (HCl)) [mg/kg]	ED50 (gastric secretion (HCl)) [mg/kg]	% inhibition of the HCl secretion (gastric secretion (HCl))
COc1ccnc(C[S+]([O-])c2nc3c(C)c(OC(F)F)c(C)cc3[nH]2)c1C (stereo not shown) [Serial No. 1, 5-Difluoromethoxy-2-[(4-methoxy-3-methyl-2-pyridyl)methylsulphinyl]-4,6-dimethyl-1H-benzimidazole]	0.5	0.5	1.1	22%
COc1ccnc(C(C)[S+]([O-])c2nc3cc(OC(F)F)c(OC)cc3[nH]2)c1 (stereo not shown) [Serial No. 2, 5-Difluoromethoxy-6-methoxy-2-{[1-(4-methoxy-2-pyridyl)ethyl]sulphinyl}-1H-benzimidazole]	0.6	~1	~2	~ 20%
COc1ccnc(C(C)[S+]([O-])c2nc3cc(OC(F)(F)C(F)F)ccc3[nH]2)c1 (stereo not shown) [Serial No. 3, 5-(1,1,2,2-Tetrafluoroethoxy)-2-{[1-(4-methoxy-2-pyridyl)ethyl]sulphinyl}-1H-benzimidazole]	0.5	0.35	0.8	35%
COc1ccnc(C[S+]([O-])c2nc3c(C)c(OC(F)F)c(C)cc3[nH]2)c1OC (stereo not shown) [Serial No. 4, 5-Difluoromethoxy-2-[(3,4-dimethoxy-2-pyridyl)-methylsulphinyl]-4,6-dimethyl-1H-benzimidazole]	~1	~1.3	~2	10%
COc1ccnc(C[S+]([O-])c2nc3cc(OC(F)(F)C(F)Cl)ccc3[nH]2)c1 (stereo not shown) [Serial No. 6, 5-(2-Chloro-1,1,2-trifluoroethoxy)-2-[(4-methoxy-2-pyridyl)methylsulphinyl]-1H-benzimidazole]	0.55	0.55	1.3	25%
COc1ccnc(C(C)[S+]([O-])c2nc3cc(OC(F)(F)C(F)Cl)ccc3[nH]2)c1 (stereo not shown) [Serial No. 7]	0.6	0.4	0.8	40%
COc1ccnc(CSc2nc3c(C)c(OC(F)F)c(C)cc3[nH]2)c1C [Serial No. 8, 5-Difluoromethoxy-2-[(4-methoxy-3-methyl-2-pyridyl)methylthio]-4,6-dimethyl-1H-benzimidazole]	0.7	1	1	15%
COc1ccnc(C(C)Sc2nc3cc(OC(F)F)c(OC)cc3[nH]2)c1 (stereo not shown) [Serial No. 9, 5-Difluoromethoxy-6-methoxy-2-{[1-(4-methoxy-2-pyridyl)ethyl]thio}-1H-benzimidazole]	1.7	< 1	~4	35%
COc1ccnc(C(C)[S+]([O-])c2nc3cc4c(cc3[nH]2)OC(F)(F)O4)c1 (stereo not shown) [compound 5]	1	1	1.7	25%
COc1ccnc(C[S+]([O-])c2nc3cc(OC(F)(F)C(F)Cl)ccc3[nH]2)c1C (stereo not shown) [compound 10]	0.4	0.4	0.8	27%
